Source: patent US12338203B2 (TAISHO PHARMACEUTICAL CO., LTD., priority 2019, dated 2025)

Molecular target: T1, human LPAR1 (Homo sapiens, UniProt Q92633)
T1 construct: expressed in transfected cells
Assay: Test Example 1: antagonism against response of LPA-induced increase in intracellular Ca2+ concentration in RH7777 cells stably expressing human LPAR1
Format: cell-based
Settings: RH7777 cells stably expressing human LPAR1; Fluo-4 fluorescence, FDSS6000; read-out: IC50 value (concentration producing 50% antagonism against response of LPA-induced increase in intracellular Ca2+ concentration) (converted)
Summary of the method: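 Ca2+ flux read at 540 nm emission (480 nm excitation) after LPA addition to human LPAR1-expressing RH7777 cells exposed to compound for 30 min, 37 °C, pH 7.4 HEPES-buffered HBSS. Response relative to no-compound control after basal subtraction; IC50 fitted from concentration–response.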

T1 sequence (Q92633 whole entry): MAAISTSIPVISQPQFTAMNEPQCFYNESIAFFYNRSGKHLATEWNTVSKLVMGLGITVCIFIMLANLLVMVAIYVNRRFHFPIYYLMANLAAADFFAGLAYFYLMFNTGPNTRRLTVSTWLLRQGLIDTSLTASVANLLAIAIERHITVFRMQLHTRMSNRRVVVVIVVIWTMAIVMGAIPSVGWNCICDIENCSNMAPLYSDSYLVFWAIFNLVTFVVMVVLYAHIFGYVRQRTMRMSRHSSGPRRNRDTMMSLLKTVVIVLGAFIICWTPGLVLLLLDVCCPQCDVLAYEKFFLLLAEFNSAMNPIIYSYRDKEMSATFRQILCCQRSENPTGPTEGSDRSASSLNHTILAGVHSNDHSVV

Molecule | IC50 [nM]
CCOc1cc([C@@H](C)N(CCCC(F)(F)c2ccccc2)C(=O)NC2(C(=O)O)CC2)cc(OCC)c1C(C)=O [Example 4-45] | 1.59
CCOc1c(C(C)=O)ccc([C@@H](C)N(CCCCc2ccccc2)C(=O)NC2(C(=O)O)CC(OC)C2)c1C (some centres unmarked) [Example 1-93] | 4
CCOc1cc([C@@H](C)N(CCO[C@@H](C)c2ccccc2)C(=O)NC2(C(=O)O)CC(OCC)C2)cc(OCC)c1C(C)=O (some centres unmarked) [Example 4-132] | 5.62
Trans-1-[([(1R)-1-(4-Acetyl-2,6-Dichloro-3,5-Diethoxyphenyl)Ethyl]{2-[(1S)-1-Phenylethoxy]Ethyl}Carbamoyl)Amino]-3-Ethoxycyclobutane-1-Carboxylic Acid [Example 5-120] | 11.1
CCOc1cc([C@@H](C)N(CCCC(F)(F)c2ccccc2)C(=O)N[C@]2(C(=O)O)C[C@@H](OCC)C2)cc(OCC)c1C(C)=O [Example 4-69] | 4.9
CCOc1cc(C(C)N(CCCCc2ccccc2)C(=O)NC2CC(C(=O)O)C2)cc(OCC)c1C(C)=O (centres unmarked) [Example 1-128] | 6.38
CCOc1cc([C@@H](C)N(CCCC(F)(F)c2ccccc2)C(=O)NC2(C(=O)O)CC(F)(F)C2)cc(OCC)c1C [Example 4-58] | 1.15
CCOc1cc([C@@H](C)N(CCO[C@@H](C)c2ccccc2)C(=O)NC2(C(=O)O)CC(OC)C2)cc(OCC)c1C1(O)CC1 (some centres unmarked) [Example 4-127] | 21.3
CCOc1cc(C(C)N(CCCCc2ccccc2)C(=O)NC2(C(=O)O)CC(C)(C)C2)cc(OCC)c1C(C)=O (centres unmarked) [Example 1-84] | 3.12
CCOc1cc([C@@H](C)N(CCN2Cc3ccccc3C2)C(=O)NC2(C(=O)O)CC(F)(F)C2)cc(OCC)c1C [Example 4-31] | 28.4
CCOc1cc(C(C)N(CCCCc2ccccc2)C(=O)NC2(C(=O)O)CC(F)(F)C2)cc(OC)c1C (centres unmarked) [Example 1-68] | 3.78
CCOc1cc([C@@H](C)N(CCCc2ccccc2)C(=O)NC2(C(=O)O)CC(F)(F)C2)cc(OCC)c1C [Example 4-36] | 5.7
CCOc1cc([C@@H](C)N(CCCCc2ccccc2)C(=O)N[C@]2(C(=O)O)C[C@@H](OC)C2)cc(OCC)c1C(C)=O [Example 1-86, Trans-1-({[(1R)-1-(4-Acetyl-3,5-Diethoxyphenyl)Ethyl](4-Phenylbutyl) Carbamoyl}Amino)-3-Methoxycyclobutane-1-Carboxylic Acid] | 2.33
CCOc1cc(C(C)N(CCCCc2ccccc2)C(=O)NC2(C(=O)O)CC(F)(F)C2)cc(F)c1C(C)=O (centres unmarked) [Example 1-71] | 3.48
CCOc1cc([C@@H](C)N(CCCCc2ccccc2)C(=O)NC2(C(=O)O)CC(OC)C2)cc(OCC)c1C (some centres unmarked) [Example 1-91] | 1.99
C=C(C)c1c(OCC)cc(C(C)N(CCCCc2ccccc2)C(=O)NC2(C(=O)O)CC(F)(F)C2)cc1OCC (centres unmarked) [Example 1-54] | 3.25
COc1cc(C(C)N(CCCn2cc(C)cn2)C(=O)NC2(C(=O)O)CC(F)(F)C2)cc(OC)c1C (centres unmarked) [Example 4-26] | 1830
CCOc1cc([C@@H](C)N(CCC(F)(F)Cc2ccccc2)C(=O)NC2(C(=O)O)CC(F)(F)C2)cc(OCC)c1C(C)O (single isomer, unassigned) [Example 4-85] | 16.1
CCOc1cc([C@@H](C)N(CCCCc2ccccc2)C(=O)NC2(C(=O)O)CC(OCC)C2)cc(OCC)c1C(C)=O (some centres unmarked) [Example 1-95] | 3.09
CCOc1cc(C(CO)N(CCCCc2ccccc2)C(=O)NC2(C(=O)O)CC(F)(F)C2)cc(OCC)c1C (centres unmarked) [Example 3-5] | 4.88
CCOc1cc(C(C)N(CCCCc2ccccc2)C(=O)NC(Cc2ccccc2)C(=O)O)cc(OCC)c1C (centres unmarked) [Example 1-8] | 125

Results, then the molecule that gave them:

IC50 [nM] | Molecule
4.3 | COc1cc(C(C)N(CCOCc2ccccc2)C(=O)NC2(C(=O)O)CC(OC)C2)c(C)c(OC)c1C(C)=O (centres unmarked) [Example 5-154]
0.949 | CCOc1cc(C(C)N(CCOCc2ccccc2)C(=O)NC2(C(=O)O)CCOCC2)cc(OCC)c1C1CC1 (centres unmarked) [Example 5-224]
2.91 | CCOc1cc([C@@H](C)N(CCO[C@@H](C)c2ccccc2)C(=O)NC2(C(=O)O)CC(OCC)C2)c(C)c(OCC)c1C(C)=O (some centres unmarked) [Example 5-119]
0.919 | CCOc1cc(C(C)N(CCOCc2ccccc2)C(=O)NC2(C(=O)O)CC2)c(Cl)c(OCC)c1C1CC1 (centres unmarked) [Example 5-185]
1.92 | CCOc1cc(C(C)N(CCOCc2ccccc2)C(=O)N[C@]2(C(=O)O)C[C@@H](OCC)C2)c(C)c(OCC)c1C(C)=O (some centres unmarked) [Example 5-214]
1.09 | CCOc1cc([C@@H](C)N(CCOCc2ccccc2)C(=O)NC2(C(=O)O)CC(F)(F)C2)c(Cl)c(OCC)c1C(C)O (single isomer, unassigned) [Example 5-55]
23.1 | CCOc1cc(C(C)N(CCCCc2ccccc2)C(=O)NC2(C(=O)O)CC(F)(F)C2)cc2c1CCO2 (centres unmarked) [Example 5-92]
2.1 | CCOc1cc([C@@H](C)N(CCCCc2ccccc2)C(=O)NC2(C(=O)O)CC(OC)C2)c(Cl)c(OCC)c1C(C)=O (some centres unmarked) [Example 5-47]
7.97 | CCOC1CC(NC(=O)N(CCOC(C)c2ccccc2)C(C)c2cc(OC)c(C3CC3)c(OC)c2C)(C(=O)O)C1 (centres unmarked) [Example 5-169]
1.05 | CCOc1cc([C@@H](C)N(CCOCc2ccccc2)C(=O)NC2(C(=O)O)CC(OC)C2)c(C)c(OCC)c1C (some centres unmarked) [Example 5-78]
30 | COc1cc(C(C)N(CCOCc2ccccc2)C(=O)NC2(C(=O)O)CCOCC2)c(Cl)c(OC)c1C(C)=O (centres unmarked) [Example 5-174]
20 | CCOc1cc(C(C)N(CCCCc2ccccc2)C(=O)NC2(P(=O)(O)O)CCCC2)cc(OCC)c1C (single isomer, unassigned) [Example 8-2]
1.46 | COc1cc(C(C)N(CCOCc2ccccc2)C(=O)NC2(C(=O)O)CC(OC)C2)c(Cl)c(OC)c1C1CC1 (centres unmarked) [Example 5-161]
43.1 | COc1cc(C(C)N(CCCCc2ccccc2)C(=O)NC2(C(=O)O)CC(F)(F)C2)nc(OC)n1 (centres unmarked) [Example 5-88]
1010 | CCOC(=O)C1(NC(=O)N(CCO[C@@H](C)c2ccccc2)C(C)c2cc(OCC)c(C(C)=O)c(OCC)c2)CC(OCC)C1 (some centres unmarked) [Example 6-9]
5.12 | CCOc1cc(OCC)nc(C(C)N(CCCCc2ccccc2)C(=O)NC2(C(=O)O)CC(F)(F)C2)c1 (centres unmarked) [Example 5-85, 1-({[1-(4,6-Diethoxypyridin-2-Yl)Ethyl](4-Phenylbutyl) Carbamoyl}Amino)-3,3-Difluorocyclobutane-1-Carboxylic Acid]
5.59 | O=C(NC1(C(=O)O)CC(F)(F)C1)N(CCCCc1ccccc1)C1COc2c(Cl)cc(Cl)cc21 (centres unmarked) [Example 5-117]
4.18 | CCOc1cc([C@@H](C)N(CCO[C@H](C)c2ccccc2)C(=O)NC2(C(=O)O)CCOCC2)c(Cl)c(OCC)c1C(C)=O [Example 5-34]
143 | COc1cc(C(C)N(CCCCc2ccccc2)C(=O)NC2(C(=O)O)CC(F)(F)C2)cnc1C#N (centres unmarked) [Example 5-90]
38.4 | COc1cc(C(C)N(CCOCc2ccccc2)C(=O)NC2(C(=O)O)CC2)c(Cl)c(OC)c1C1CC1 (centres unmarked) [Example 5-129]
3340 | CCOc1cc(C(C)N(CCO[C@@H](C)c2ccccc2)C(=O)NC2(C(=O)OC(C)(C)C)CC(OCC)C2)c(Cl)c(OCC)c1C(C)=O (some centres unmarked) [Example 6-15]
6.4 | COc1cc(C(C)N(CCO[C@@H](C)c2ccccc2)C(=O)NC2(C(=O)O)CCOCC2)c(Cl)c(OC)c1C1CC1 (some centres unmarked) [Example 5-180]
3.17 | CCOc1cc(C(C)N(CCOCc2ccccc2)C(=O)NC2(c3nn[nH]n3)CC(F)(F)C2)cc(OCC)c1C1CC1 (centres unmarked) [Example 10-13]
